Assay results reported in US7205433B2, “Crystal of amino acid ester salt and process for producing the same” (Ajinomoto Co., Inc., priority 2002, dated 2007).

How the values were obtained:
Assay type in all cases: physicochemical
[1] = Experimental Example 1: comparison of hygroscopicity by weight gain over time (44 to 45% RH); conditions: 22 to 24° C.
Protocol: L-Ala-OEt HCl salt and L-Ala-OEt MsOH salt were measured into in a glass container in an amount of 1.6 g each, dried in vacuo at 30° C. for 5 hours, left under conditions of temperature: 22 to 24° C., humidity: 44 to 45% RH, and then the hygroscopicity was compared based on the weight gain over the lapse of time. […] The liquefied portion increased with the lapse of time, and the entire salt became liquid 750 minutes later with no observable crystal.

[2] = Experimental Example 2: comparison of hygroscopicity by weight gain over time (62 to 64% RH); conditions: 24° C.
Protocol: In the same manner as in Experimental Example 1, L-Ala-OEt MsOH salt and L-Ala-OMe HCl salt were measured into a glass container in an amount of 0.6 g each, left under conditions of temperature: 24° C., humidity: 62 to 64% RH, and then the hygroscopicity was compared based on the weight gain with the lapse of time.

[3] = Experimental Example 4: comparison of hygroscopicity by weight gain over time (40 to 46% RH); conditions: 24° C.
Protocol: The L-Ala-OEt HCl salt, L-Ala-OEt MsOH salt, L-Ala-OEt BsOH salt, L-Ala-OEt 4-CBS salt, L-Ala-OEt 4-EBS salt, L-Ala-OEt 2,4-DMBS salt, and L-Ala-OEt 2,5-DMBS salt were measured in an amount of about 0.3 g each, left standing in a thermostatic chamber at a temperature of 24° C. and a humidity of 40 to 46% RH, and the hygroscopicity was compared based on the weight gain with the lapse of time. A part of the crystal of the L-Ala-OEt HCl salt was liquefied in 30 minutes, and the liquefied portion increased thereafter with the lapse of time. After 100 minutes, the whole mass became like a sherbet.

[4] = Experimental Example 5: comparison of hygroscopicity by weight gain over time (60 to 66% RH); conditions: 24 EC
Protocol: The L-Ala-OMe HCl salt, L-Ala-OEt MsOH salt, L-Ala-OEt BsOH salt, L-Ala-OEt 4-CBS salt, L-Ala-OEt 4-EBS salt, L-Ala-OEt 2,4-DMBS salt, and L-Ala-OEt 2,5-DMBS salt were measured in an amount of about 0.3 g each, left standing in a thermostatic chamber at a temperature of 24 EC and a humidity of 60 to 66% RH, and the hygroscopicity was compared based on the weight gain with the lapse of time.

[5] = Experimental Example 7: evaluation of hygroscopicity by weight gain over time (60 to 66% RH); conditions: 24 EC
Protocol: The L-Ala-OMe HCl salt, L-Ala-OMe 4-EBS salt, L-Ala-OMe 2,4-DMBS salt, and L-Ala-OMe 2,5-DMBS salt were measured in an amount of about 0.3 g each, left standing in a thermostatic chamber at temperature of 24 EC and a humidity of 60 to 66% RH, and the hygroscopicity was compared based on the weight gain with the lapse of time. A part of the crystal of the L-Ala-OMe HCl salt was liquefied in 10 minutes, and the entirety became a sherbet in 20 minute. The liquefied portion increased thereafter with the lapse of time. After 80 minutes, the whole was liquefied.

With `CCOC(=O)[C@H](C)N.CS(=O)(=O)O` [L-Ala-OEt MsOH salt, L-alanine ethyl ester methanesulfonate] the “weight increase rate (% relative to initial weight)” value ([1]; 0 minutes) was 0.00%, the “weight increase rate (% relative to initial weight)” value ([1]; 1 minutes) was 0.08% and the “weight increase rate (% relative to initial weight)” value ([1]; 2 minutes) was 0.11%. For the same molecule, the “weight increase rate (% relative to initial weight)” value ([1]; 3 minutes) was 0.17%, the “weight increase rate (% relative to initial weight)” value ([1]; 4 minutes) was 0.17% and the “weight increase rate (% relative to initial weight)” value ([1]; 6 minutes) was 0.23%. For the same molecule, the “weight increase rate (% relative to initial weight)” value ([1]; 10 minutes) was 0.36%, the “weight increase rate (% relative to initial weight)” value ([1]; 15 minutes) was 0.41% and the “weight increase rate (% relative to initial weight)” value ([1]; 25 minutes) was 0.48%. For the same molecule, the “weight increase rate (% relative to initial weight)” value ([1]; 35 minutes) was 0.56%, the “weight increase rate (% relative to initial weight)” value ([1]; 50 minutes) was 0.58% and the “weight increase rate (% relative to initial weight)” value ([1]; 60 minutes) was 0.59%. For the same molecule, the “weight increase rate (% relative to initial weight)” value ([1]; 75 minutes) was 0.63%, the “weight increase rate (% relative to initial weight)” value ([1]; 90 minutes) was 0.57% and the “weight increase rate (% relative to initial weight)” value ([1]; 120 minutes) was 0.58%. The “weight increase rate (% relative to initial weight)” value ([1]; 150 minutes) was 0.58%, the “weight increase rate (% relative to initial weight)” value ([1]; 180 minutes) was 0.61% and the “weight increase rate (% relative to initial weight)” value ([1]; 750 minutes) was 1.16%. The “change in weight with the lapse of time” value ([1]; up to 750 minutes) was “almost no change in weight”, the liquefaction ([1]; up to 750 minutes) was “liquefaction was not observed” and the “weight increase rate (% relative to initial weight)” value ([2]; 0 minutes) was 0.00%. The “weight increase rate (% relative to initial weight)” value ([2]; 10 minutes) was 0.18%, the “weight increase rate (% relative to initial weight)” value ([2]; 20 minutes) was 0.26% and the “weight increase rate (% relative to initial weight)” value ([2]; 35 minutes) was 0.39%. The “weight increase rate (% relative to initial weight)” value ([2]; 50 minutes) was 0.53%, the “weight increase rate (% relative to initial weight)” value ([2]; 65 minutes) was 0.55% and the “weight increase rate (% relative to initial weight)” value ([2]; 80 minutes) was 0.63%. The “weight increase rate (% relative to initial weight)” value ([2]; 95 minutes) was 0.70%, the “weight increase rate (% relative to initial weight)” value ([2]; 110 minutes) was 0.78% and the “weight increase rate (% relative to initial weight)” value ([2]; 125 minutes) was 0.94%. The “weight increase rate (% relative to initial weight)” value ([2]; 140 minutes) was 1.01%, the “weight increase rate (% relative to initial weight)” value ([2]; 155 minutes) was 1.00% and the “weight increase rate (% relative to initial weight)” value ([2]; 170 minutes) was 1.13%. The “weight increase rate (% relative to initial weight)” value ([2]; 185 minutes) was 1.26%, the “weight increase rate (% relative to initial weight)” value ([2]; 200 minutes) was 1.32% and the “change in weight with the lapse of time” value ([2]; up to 200 minutes) was “not much change in weight”. For the same molecule, the liquefaction ([2]; up to 200 minutes) was “liquefaction was not observed”, the “weight increase rate (%)” value ([3]; 0 minutes) was 0.00% and the “weight increase rate (%)” value ([3]; 15 minutes) was 0.03%. For the same molecule, the “weight increase rate (%)” value ([3]; 30 minutes) was 0.03%, the “weight increase rate (%)” value ([3]; 45 minutes) was 0.00% and the “weight increase rate (%)” value ([3]; 60 minutes) was 0.19%. For the same molecule, the “weight increase rate (%)” value ([3]; 75 minutes) was 0.35%, the “weight increase rate (%)” value ([3]; 90 minutes) was 0.35% and the “weight increase rate (%)” value ([3]; 120 minutes) was 0.42%. The “weight increase rate (%)” value ([3]; 150 minutes) was 0.39%, the “weight increase rate (%)” value ([3]; 180 minutes) was 0.55% and the “weight increase rate (%)” value ([4]; 0 minutes) was 0.00%. The “weight increase rate (%)” value ([4]; 10 minutes) was 0.32%, the “weight increase rate (%)” value ([4]; 20 minutes) was 0.35% and the “weight increase rate (%)” value ([4]; 35 minutes) was 0.38%. The “weight increase rate (%)” value ([4]; 50 minutes) was 0.38%, the “weight increase rate (%)” value ([4]; 65 minutes) was 0.41% and the “weight increase rate (%)” value ([4]; 80 minutes) was 0.44%. For the same molecule, the “weight increase rate (%)” value ([4]; 95 minutes) was 0.44%, the “weight increase rate (%)” value ([4]; 110 minutes) was 0.48% and the “weight increase rate (%)” value ([4]; 125 minutes) was 0.44%. The “weight increase rate (%)” value ([4]; 140 minutes) was 0.48%, the “weight increase rate (%)” value ([4]; 155 minutes) was 0.48% and the “weight increase rate (%)” value ([4]; 170 minutes) was 0.51%. For the same molecule, the “weight increase rate (%)” value ([4]; 185 minutes) was 0.48% and the “weight increase rate (%)” value ([4]; 200 minutes) was 0.51%.
With `COC(=O)[C@H](C)N.Cl` [L-Ala-OMe HCl salt, alanine methyl ester hydrochloride, reference compound] the “time to liquefaction of a part of the crystals” value [2] was 20 min, the “time until the entire salt became liquid” value [2] was 155 min and the “weight increase rate (% relative to initial weight)” value ([2]; 0 minutes) was 0.00%. For the same molecule, the “weight increase rate (% relative to initial weight)” value ([2]; 10 minutes) was 0.11%, the “state of the crystals” value ([2]; 20 minutes) was “(partly liquefied)” and the “weight increase rate (% relative to initial weight)” value ([2]; 20 minutes) was 0.54%. The “weight increase rate (% relative to initial weight)” value ([2]; 35 minutes) was 1.04%, the “weight increase rate (% relative to initial weight)” value ([2]; 50 minutes) was 1.67% and the “state of the crystals” value ([2]; 65 minutes) was “(whole sherbet)”. For the same molecule, the “weight increase rate (% relative to initial weight)” value ([2]; 65 minutes) was 2.27%, the “weight increase rate (% relative to initial weight)” value ([2]; 80 minutes) was 2.83% and the “weight increase rate (% relative to initial weight)” value ([2]; 95 minutes) was 3.36%. The “weight increase rate (% relative to initial weight)” value ([2]; 110 minutes) was 3.97%, the “weight increase rate (% relative to initial weight)” value ([2]; 125 minutes) was 4.54% and the “weight increase rate (% relative to initial weight)” value ([2]; 140 minutes) was 5.13%. For the same molecule, the “state of the crystals” value ([2]; 155 minutes) was “(whole liquid)”, the “weight increase rate (% relative to initial weight)” value ([2]; 155 minutes) was 5.48% and the “weight increase rate (% relative to initial weight)” value ([2]; 170 minutes) was 6.02%. For the same molecule, the “weight increase rate (% relative to initial weight)” value ([2]; 185 minutes) was 6.56%, the “weight increase rate (% relative to initial weight)” value ([2]; 200 minutes) was 7.03% and the “time until a part of the crystal was liquefied” value [4] was 35 min. For the same molecule, the “time until the whole mass was like a sherbet” value [4] was 125 min, the “weight increase rate (%)” value ([4]; 0 minutes) was 0.00% and the “weight increase rate (%)” value ([4]; 10 minutes) was 3.03%. For the same molecule, the “weight increase rate (%)” value ([4]; 20 minutes) was 4.85%, the “weight increase rate (%)” value ([4]; 35 minutes) was 7.30% and the “weight increase rate (%)” value ([4]; 50 minutes) was 8.84%. The “weight increase rate (%)” value ([4]; 65 minutes) was 10.42%, the “weight increase rate (%)” value ([4]; 80 minutes) was 11.65% and the “weight increase rate (%)” value ([4]; 95 minutes) was 12.77%. For the same molecule, the “weight increase rate (%)” value ([4]; 110 minutes) was 13.69%, the “weight increase rate (%)” value ([4]; 125 minutes) was 14.74% and the “weight increase rate (%)” value ([4]; 140 minutes) was 15.46%. The “weight increase rate (%)” value ([4]; 155 minutes) was 16.23%, the “weight increase rate (%)” value ([4]; 170 minutes) was 16.88% and the “weight increase rate (%)” value ([4]; 185 minutes) was 17.43%. The “weight increase rate (%)” value ([4]; 200 minutes) was 17.77%, the “time until a part of the crystal was liquefied” value [5] was 10 min and the “time until the entirety became a sherbet” value [5] was 20 min. The “time until the whole was liquefied” value [5] was 80 min, the “weight increase rate (%)” value ([5]; 0 min) was 0.00% and the “state of the crystals” value ([5]; 10 min) was “(partly liquefied)”. The “weight increase rate (%)” value ([5]; 10 min) was 6.74%, the “state of the crystals” value ([5]; 20 min) was “(sherbet state)” and the “weight increase rate (%)” value ([5]; 20 min) was 10.06%. For the same molecule, the “weight increase rate (%)” value ([5]; 35 min) was 12.52%, the “weight increase rate (%)” value ([5]; 50 min) was 14.31% and the “weight increase rate (%)” value ([5]; 65 min) was 15.69%. The “state of the crystals” value ([5]; 80 min) was “(entirely liquefied)”, the “weight increase rate (%)” value ([5]; 80 min) was 17.16% and the “weight increase rate (%)” value ([5]; 95 min) was 18.31%. The “weight increase rate (%)” value ([5]; 110 min) was 19.42%, the “weight increase rate (%)” value ([5]; 125 min) was 20.54% and the “weight increase rate (%)” value ([5]; 140 min) was 21.66%. For the same molecule, the “weight increase rate (%)” value ([5]; 155 min) was 22.62%, the “weight increase rate (%)” value ([5]; 170 min) was 23.55% and the “weight increase rate (%)” value ([5]; 185 min) was 24.41%. For the same molecule, the “weight increase rate (%)” value ([5]; 200 min) was 25.14%.
